This is an account of results in US20250129048A1, “MELANOCORTIN 4 RECEPTOR ANTAGONISTS AND USES THEREOF” (Pfizer Inc., priority 2021, published 2025).

The structures appear in SMILES notation.

This test deals with hMC4R (Homo sapiens (Human), UniProt P32245). Put plainly: In vitro binding affinity assay using hMC4R (radioligand competition binding, CHO cell membranes). Particulars: competition with [125I]-(Nle4, D-Phe7)-α-MSH 0.5 nM; Ki from IC50 by Cheng-Prusoff; read-out: Ki (nM) geometric mean. Here is the method: The binding affinity of test compounds at the α-melanocyte-stimulating hormone receptor (hMC4R) was assessed using a radioligand competition binding assay. Recombinant Chinese hamster ovaries (CHO) cells stably expressing hMC4R (PerkinElmer #ES-191-C) were used for competitive binding. hMC4R membranes were grown in Dulbecco's Modified Essential Medium and Ham's F-12 Medium (DMEM/F12), 10% heat inactivated fetal bovine serum (FBS), 0.4 mg/mL Geneticin and 2 mM L-glutamine. Cell membranes were bulked and frozen until the assay was performed.
hMC4R, sequence (P32245 whole entry): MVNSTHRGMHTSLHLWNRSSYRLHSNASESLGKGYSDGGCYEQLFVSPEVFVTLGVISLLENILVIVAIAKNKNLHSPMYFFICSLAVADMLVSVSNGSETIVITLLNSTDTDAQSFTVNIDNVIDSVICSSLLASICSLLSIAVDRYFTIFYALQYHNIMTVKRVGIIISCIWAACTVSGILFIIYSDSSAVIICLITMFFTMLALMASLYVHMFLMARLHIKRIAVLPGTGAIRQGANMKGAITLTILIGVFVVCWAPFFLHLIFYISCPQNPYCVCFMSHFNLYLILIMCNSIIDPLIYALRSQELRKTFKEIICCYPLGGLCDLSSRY
Compounds were solubilized in 100% dimethyl sulfoxide (DMSO) to a concentration of 30 mM. A 10-point intermediate dilution series using half log dilutions was created in 100% DMSO with a top concentration of 0.03 mM. The serially diluted compounds were spotted as 1 μL/well, in 96-well Costar 3363 plates. The final compound range in the assay was 300 nM to 0.01 nM with a final DMSO concentration of 1%. Control wells, containing 1 μL of 2 mM ([…]) alpha-melanocyte stimulating hormone (α-MSH-Tocris #2584) was added to the non-specific binding wells and 1 μL 100% DMSO for the total binding control wells. This was followed by the addition of 80 μL of assay buffer [25 mM HEPES, 5 mM MgCl2, 2.5 mM CaCl2, 150 mM NaCl, Complete EDTA-free Protease Inhibitor Tablet (Thermo Scientific #11873580001) and 0.25% BSA]. […] The exact concentration of radioligand used for each experiment was determined by liquid scintillation counting and adjusted if necessary.
Frozen hMC4R cell membranes were thawed and Dounce homogenized. Homogenates were resuspended in assay buffer to a concentration of 2 μg per well. […] The plates were incubated for 2 hours at room temperature. Assay samples were then rapidly filtered through Unifilter-96 GF/B PEI coated filter plates using a filter plate harvester (PerkinElmer) and rinsed with ice-cold wash buffer [25 mM (4-(2-hydroxyethyl)-1-piperazineethanesulfonic acid (HEPES), 1 mM MgCl2, 2.5 mM CaCl2, and 500 mM NaCl]. Filter plates were dried overnight at room temperature. Plates were then bottom-sealed prior to the addition of 50 μL/well Ultima Gold XR scintillation fluid (PerkinElmer 6013111). Plates were then top-sealed, incubated for 60 minutes at room temperature and then the amount of radioactivity present was determined by liquid scintillation counting on a Microbeta Trilux (PerkinElmer #2450-0060).
The raw data (expressed as counts per minute) were analyzed using ActivityBase (IDBS Data Management Software). […] Equilibrium dissociation constant for inhibitor of ligand and receptor interaction (Ki) values were then calculated from the IC50 values using the Cheng-Prusoff equation: Ki=IC50/(1+([L]/Kd)), where [L] is the concentration of the radioligand used in the experiment and Kd is the affinity of the radioligand (determined in separate saturation experiments).

As for `COc1cc([C@](C)(F)C(=O)N2CC[C@H](Nc3ccc(-c4cn(C)c(C(F)F)n4)c(C)n3)C2)ccn1` (single isomer, unassigned) [Example 36B], the Ki was determined as 4.3 nM.
With `Cc1nc(N[C@H]2CCN(C(=O)Cc3ccc(F)c(F)c3)C2)ccc1-c1cn(C)c(C(F)F)n1` [Example 10, 1-[(3S)-3-({5-[2-(difluoromethyl)-1-methyl-1H-imidazol-4-yl]-6-methylpyridin-2-yl}amino)pyrrolidin-1-yl]-2-(3,4-difluorophenyl)ethan-1-one], the Ki amounted to 0.31 nM.
Consider `Cc1nc(N[C@@H]2CCN(C(=O)Cc3ccc(F)cc3)C2(C)C)ccc1-c1cn(C)cn1` [Example 3A, 1-[(3R)-2,2-dimethyl-3-{[6-methyl-5-(1-methyl-1H-imidazol-4-yl)pyridin-2-yl]amino}pyrrolidin-1-yl]-2-(4-fluorophenyl)ethan-1-one], for which the Ki amounted to 520 nM.
On to `COc1cc([C@@H](C)C(=O)N2CC[C@H](Nc3ccc(-c4nc(C(C)(F)F)n(C)n4)c(C)n3)C2)c(Cl)cn1` (single isomer, unassigned) [Example 37A], for which the Ki was 150 nM.
In the case of `Cc1nc(N[C@H]2CCN(C(=O)Cc3ccc(OC(F)(F)F)cc3)C2)ccc1-c1cn(C)c(C(F)F)n1` [Example 9, 1-[(3S)-3-({5-[2-(difluoromethyl)-1-methyl-1H-imidazol-4-yl]-6-methylpyridin-2-yl}amino)pyrrolidin-1-yl]-2-[4-(trifluoromethoxy)phenyl]ethan-1-one], the inhibition constant Ki came out at 0.46 nM.
On to `Cc1nc(N[C@H]2CCN(C(=O)Cc3ccc(F)cc3)C2)ccc1-c1cc(C)n(C)n1` [Example 32, 1-[(3S)-3-{[5-(1,5-dimethyl-1H-pyrazol-3-yl)-6-methylpyridin-2-yl]amino}pyrrolidin-1-yl]-2-(4-fluorophenyl)ethan-1-one], for which the Ki is 5.5 nM.
With `COc1cc([C@@H](C)C(=O)N2CC[C@H](Nc3ccc(-c4cn(C)c(C(F)F)n4)c(C)n3)C2)c(F)cn1` (single isomer, unassigned) [Example 38A], the Ki was determined as 62 nM.
As for `Cc1nc(N[C@H]2CCN(C(=O)Cc3ccc(F)cc3)C2)ccc1-c1noc(C(F)(F)F)n1` [Example 27, 2-(4-fluorophenyl)-1-[(3S)-3-({6-methyl-5-[5-(trifluoromethyl)-1,2,4-oxadiazol-3-yl]pyridin-2-yl}amino)pyrrolidin-1-yl]ethan-1-one], the Ki is 950 nM.
Turning to `COc1cc(OC(F)F)cc([C@@H](C)C(=O)N2CC[C@H](Nc3ccc(-c4nc(C(C)(F)F)n(C)n4)c(C)n3)C2)c1` (single isomer, unassigned) [Example 40A], the Ki was determined as 54 nM.
As to `Cc1nc(N[C@H]2CCN(C(=O)C(F)(F)c3ccc(Cl)cc3)C2)ccc1-c1cn(C)c(C(F)F)n1` [Example 23, 2-(4-chlorophenyl)-1-[(3S)-3-({5-[2-(difluoromethyl)-1-methyl-1H-imidazol-4-yl]-6-methylpyridin-2-yl}amino)pyrrolidin-1-yl]-2,2-difluoroethan-1-one], the Ki was 1.1 nM.
As for `COc1cccc([C@@H](C)C(=O)N2CC[C@H](Nc3ccc(-c4cn(C)c(C(C)(F)F)n4)c(C)n3)C2)c1` (single isomer, unassigned) [Example 14A], the Ki turned out to be 530 nM.
For `Cc1nc(N[C@H]2CCN(C(=O)Cc3ccc(F)cc3)C2)ccc1-c1nc2n(n1)CC(F)(F)CO2` [Example 29, 1-[(3S)-3-{[5-(6,6-difluoro-6,7-dihydro-5H-[1,2,4]triazolo[5,1-b][1,3]oxazin-2-yl)-6-methylpyridin-2-yl]amino}pyrrolidin-1-yl]-2-(4-fluorophenyl)ethan-1-one], the Ki amounted to 6.9 nM.
`COc1cc([C@@H](C)C(=O)N2CC[C@H](Nc3ccc(-c4cn(C)c(C(F)F)n4)c(C)n3)C2)cc(OC)n1` (single isomer, unassigned) [Example 12B]: the Ki was determined as 7.7 nM.
Regarding `COc1cc(CC(=O)N2CC[C@H](Nc3ccc(-c4cn(C)cn4)c(C)n3)C2)ccc1C` [Example 31, 2-(3-methoxy-4-methylphenyl)-1-[(3S)-3-{[6-methyl-5-(1-methyl-1H-imidazol-4-yl)pyridin-2-yl]amino}pyrrolidin-1-yl]ethan-1-one], the Ki is 1 nM.
As for `Cc1ccccc1[C@@H](C)C(=O)N1CC[C@H](Nc2ccc(-c3cn(C)c(C(C)(F)F)n3)c(C)n2)C1` (single isomer, unassigned) [Example 15B], the Ki is 0.83 nM.
Turning to `COc1cc([C@@H](C)C(=O)N2CC[C@H](Nc3ccc(-c4nc(C(F)F)n(C)n4)c(C)n3)C2)ccn1` (single isomer, unassigned) [Example 33A], the Ki is 1100 nM.
Consider `COc1ccc(C)c([C@@H](C)C(=O)N2CC[C@H](Nc3ccc(-c4cn(C)cn4)c(C)n3)C2)c1` (single isomer, unassigned) [Example 20A], for which the Ki was found to be 1100 nM.
Under `COc1cc([C@@H](C)C(=O)N2CC[C@H](Nc3ccc(-c4nc(C(F)F)n(C)n4)c(C)n3)C2)c(Cl)cn1` (single isomer, unassigned) [Example 24A] stands 20 nM; under `Cc1ccccc1[C@@H](C)C(=O)N1CC[C@H](Nc2ccc(-c3cn(C)c(C(C)(F)F)n3)c(C)n2)C1` (single isomer, unassigned) [Example 15A], 150 nM; under `COc1cc([C@@H](C)C(=O)N2CC[C@H](Nc3ccc(-c4cn(C)c(C(C)(F)F)n4)c(C)n3)C2)c(F)cn1` (single isomer, unassigned) [Example 21A], 190 nM.
As for `Cc1nc(N[C@H]2CCN(C(=O)[C@H](C)c3ccccc3)C2)ccc1-c1cn(C)c(C(F)F)n1` [Example 11, (2R)-1-[(3S)-3-({5-[2-(difluoromethyl)-1-methyl-1H-imidazol-4-yl]-6-methylpyridin-2-yl}amino)pyrrolidin-1-yl]-2-phenylpropan-1-one], the Ki was 1.1 nM.
On to `COc1cc([C@@H](C)C(=O)N2CC[C@H](Nc3ccc(-c4nc(C(F)F)n(C)n4)c(C)n3)C2)nc(C)n1` (single isomer, unassigned) [Example 41A], for which the Ki was found to be 240 nM.
As to `COc1cc([C@@H](C)C(=O)N2CC[C@H](Nc3ccc(-c4cn(C)c(C(C)(F)F)n4)c(C)n3)C2)c(C)cn1` (single isomer, unassigned) [Example 16A], the Ki was above 220 nM.
For the compound `Cc1nc(N[C@H]2CCN(C(=O)C(F)(F)c3ccc(Cl)c(Cl)c3)C2)ccc1-c1cn(C)c(C(F)F)n1` [Example 34, 2-(3,4-dichlorophenyl)-1-[(3S)-3-({5-[2-(difluoromethyl)-1-methyl-1H-imidazol-4-yl]-6-methylpyridin-2-yl}amino)pyrrolidin-1-yl]-2,2-difluoroethan-1-one], the Ki worked out at 0.88 nM.
On to `Cc1nc(N[C@H]2CCN(C(=O)C3(c4ccccc4)CC3(F)F)C2)ccc1-c1cn(C)cn1` (stereo partly drawn) [Example 35, (2,2-difluoro-1-phenylcyclopropyl)[(3S)-3-{[6-methyl-5-(1-methyl-1H-imidazol-4-yl)pyridin-2-yl]amino}pyrrolidin-1-yl]methanone], for which the inhibitory constant (Ki) came to 0.95 nM.
For `COc1cc([C@@H](C)C(=O)N2CC[C@H](Nc3ccc(-c4nc(C(F)(F)F)n(C)n4)c(C)n3)C2)c(Cl)cn1` (single isomer, unassigned) [Example 25A] the value was 88 nM.
